Experimental data reported in patent US6953789B2, “Thiol compounds, their production and use” (Takeda Chemical Industries, Ltd., priority 1998, dated 2005).

molecular target: T1, recombinant human MMP-13 (Homo sapiens, UniProt P45452); experiment: Assay of MMP-13 inhibiting activity (fluorogenic peptide substrate); format: biochemical; conditions: Table 1; 37° C., 2 hours
T1 construct: made in house; host or cells: baculovirus (pBlueBac4 / Bac-N-Blue; virus made in Sf9), expressed in High-Five insect cells; culture supernatant used
Excerpt: Based on the sequence described in the literature by Freije, J. M. et al (Journal of Biological Chemistry, 269: 16766-16773, 1994) and using a PCR method known per se, a human MMP-13 cDNA was obtained.
A pBlueBac4 (Invitrogen) and a Baculovirus vector Bac-N-Blue (Invitrogen) to each of which the human MMP-13 cDNA obtained above was integrated were co-transfected to an Sf9 cell to obtain a MMP-13-expressing recombinant virus.
The recombinant virus thus obtained was infected to a High-Five cell (Invitrogen), and the culture supernatant after three days was employed as an enzyme solution. Experiment 2 Assay of MMP-13 inhibiting activity
75 μl of a sample containing the recombinant human MMP-13, 200 mM sodium chloride, 20 mM calcium chloride, 0.1% Brij 35, 1 mM 2-mercaptoethanol, 200 mM tris-HCl buffer solution (pH7.5) and a test substance at various concentrations was treated with 25 μl of 40 μM MOCAc-Pro-Leu-Gly-Leu-A2pr(DNP)-Ala-Arg-NH2 (PEPTIDE KENKYUSHO) to initiate a reaction and kept at 37° C. for 2 hours, and then 100 μl of 500 mM sodium acetate-HCl buffer solution (pH3.0) was added to terminate the reaction.
The level of liberated MOCAc-Pro-Leu-Gly was determined using a fluorophotometer (MTP-32/F2: CORONA DENKI) at the excitation wavelength of 330 nm and the fluorescent wavelength of 405 nm. The fluorescent level of the reaction in the absence of a test substance was regarded as 100%, and the concentration of each test substance required for achieving 50% inhibition was indicated as IC50.

Row | IC50 [nM] | Molecule
1 | > 10000 | CCSC1CC(=O)N(Cc2ccc(Oc3ccccc3)cc2)C1=O (stereo not drawn) [Example 2, 3-Ethylthio-1-(4-phenoxybenzyl)pyrrolidine-2,5-dione]

same assay, conditions: Table 3; 37° C., 2 hours

Row | IC50 [nM] | Molecule
2 | 3 | CNC(=O)S[C@@H]1CC(=O)N(Cc2ccc(Oc3ccccc3)cc2)C1 [Example 50, S-[(3R)-5-oxo-1-(4-phenoxybenzyl)pyrrolidinyl]methylthiocarbamate]
3 | 3000 | CN(C)C(=O)S[C@@H]1CC(=O)N(Cc2ccc(Oc3ccccc3)cc2)C1 [Example 62, S-[(3R)-5-oxo-1-(4-phenoxybenzyl)pyrrolidinyl]dimethylcarbamothioate]
4 | 400 | O=C(O)CSS[C@@H]1CC(=O)N(Cc2ccc(Oc3ccccc3)cc2)C1 [Example 83]
5 | 300 | O=C1C[C@H](S)CN1Cc1ccc(Oc2ccccc2)cc1 [Example 22, (S)-4-Mercapto-1-(4-phenoxybenzyl)pyrrolidin-2-one]
6 | 1000 | O=C(O)CS[C@@H]1CC(=O)N(Cc2ccc(Oc3ccccc3)cc2)C1 [Example 91, 2-{[(3R)-5-Oxo-1-(4-phenoxybenzyl)pyrrolidinyl]sulfanyl}acetic acid]
7 | 1.4 | O=C(NC(=O)c1ccccc1)S[C@@H]1CC(=O)N(Cc2ccc(Oc3ccccc3)cc2)C1 [Example 56, S-[(3R)-5-oxo-1-(4-phenoxybenzyl)pyrrolidinyl]benzoylthiocarbamate]
8 | 100 | O=C(NCS[C@@H]1CC(=O)N(Cc2ccc(Oc3ccccc3)cc2)C1)c1ccccc1 [Example 102, N-({[(3R)-5-oxo-1-(4-phenoxybenzyl)pyrrolidinyl]sulfanyl}methyl)benzamide]
9 | 300 | CCOC(=O)NCS[C@@H]1CC(=O)N(Cc2ccc(Oc3ccccc3)cc2)C1 [Example 103, Ethyl {[(3R)-5-oxo-1-(4-phenoxybenzyl)pyrrolidinyl]sulfanyl}methylcarbamate]
10 | 670 | C/C(=C(\CCO)SS[C@@H]1CC(=O)N(Cc2ccc(Oc3ccccc3)cc2)C1)N(C=O)Cc1cnc(C)nc1N [Example 88, (4-Amino-2-methyl-5-pyrimidinyl)methyl((Z)-4-hydroxy-1-methyl-2-{[(3R)-5-oxo-1-(4-phenoxybenzyl)pyrrolidinyl]disulfanyl}-1-butenyl)formamide]
11 | 5000 | O=C1C[C@@H](SCCO)CN1Cc1ccc(Oc2ccccc2)cc1 [Example 90, (4R)-4-[(2-Hydroxyethyl)sulfanyl)-1-(4-phenoxybenzyl)-2-pyrrolidinone]
12 | 2000 | O=C1C[C@@H](SC(=O)N2CCOCC2)CN1Cc1ccc(Oc2ccccc2)cc1 [Example 63, S-[(3R)-5-oxo-1-(4-phenoxybenzyl)pyrrolidinyl]4-morpholinecarbothioate]
13 | 50 | CCOC(=O)CSS[C@@H]1CC(=O)N(Cc2ccc(Oc3ccccc3)cc2)C1 [Example 82]
14 | 700 | O=C(O)c1ccc(CS[C@@H]2CC(=O)N(Cc3ccc(Oc4ccccc4)cc3)C2)cc1 [Example 96, 4-({[(3R)-5-oxo-1-(4-phenoxybenzyl)pyrrolidinyl]sulfanyl}methyl)benzoic acid]
15 | 200 | COCS[C@@H]1CC(=O)N(Cc2ccc(Oc3ccccc3)cc2)C1 [Example 98, (4R)-4-[(Methoxymethyl)sulfanyl]-1-(4-phenoxybenzyl)-2-pyrrolidinone]
16 | 600 | O=C1C[C@@H](SSc2ccccc2[N+](=O)[O-])CN1Cc1ccc(Oc2ccccc2)cc1 [Example 87, (4R)-4-[(2-Nitrophenyl)disulfanyl)-1-(4-phenoxybenzyl)-2-pyrrolidinone]

same assay, conditions: Table 5; 37° C., 2 hours

Row | IC50 [nM] | Molecule
17 | 19 | O=C(NCc1ccncc1)[C@H]1[C@H](S)CC(=O)N1Cc1ccc(Oc2ccccc2)cc1 (relative stereo) [Example 192, trans-4-Mercapto-5-(4-pyridylmethyl)aminocarbonyl-1-(4-phenoxybenzyl)pyrrolidin-2-one]
18 | 8 | CC(=O)S[C@@H]1CC(=O)N(Cc2ccc(Oc3ccccc3)cc2)[C@H]1Cc1ccccc1 (relative stereo) [Example 181, trans-4-Acetylthio-5-benzyl-1-(4-phenoxybenzyl)pyrrolidin-2-one]

same assay, conditions: Table 7; 37° C., 2 hours

Row | IC50 [nM] | Molecule
19 | > 10000 | O=C1C[C@H](SS[C@H]2CC(=O)N(Cc3ccc(Oc4ccccc4)cc3)C2)CN1Cc1ccc(Oc2ccccc2)cc1 [Example 23, (4S,4′S)-4,4′-Dithiobis[1-(4-phenoxybenzyl)pyrrolidin-2-one]]

same assay, conditions: Table 9; 37° C., 2 hours

Row | IC50 [nM] | Molecule
20 | 6 | O=C1CC(S)CN1Cc1ccc(Oc2ccc(Br)cc2)cc1 (stereo not drawn) [Example 35, 4-Mercapto-1-(4-(4′-bromophenoxy)benzyl)pyrrolidin-2-one]
21 | 8 | CC(=O)SC1CC(=O)N(Cc2ccc(Oc3ccc(Cl)cc3)cc2)C1 (stereo not drawn) [Example 32, 4-Acetylthio-1-(4-(4′-chlorophenoxy)benzyl)pyrrolidin-2-one]
22 | 4 | O=C1CC(S)CN1Cc1ccc(Oc2cccc(F)c2)cc1 (stereo not drawn) [Example 115, 4-Mercapto-1-[4-(3′-fluorophenoxy)benzyl]pyrrolidin-2-one]
23 | 10 | CC(=O)SC1CC(=O)N(Cc2ccc(Oc3ccc(F)cc3F)cc2)C1 (stereo not drawn) [Example 119, 4-Acetylthio-1-[4-(2′,4′-difluorophenoxy)benzyl]pyrrolidin-2-one]
24 | 7000 | CC(=O)S[C@H]1CC(=O)N(Cc2ccc(Oc3ccc(F)cc3)cc2)C1 [Example 116, (S)-4-Acethylthio-1-[4-(4′-fluorophenoxy)benzyl)pyrrolidin-2-one]
25 | > 10000 | CC(=O)SC1CC(=O)N(Cc2ccc(Oc3ccccc3)c(NS(C)(=O)=O)c2)C1 (stereo not drawn) [Example 152, 4-Acetylthio-1-(3-methylsulfonylamino-4-phenoxybenzyl)pyrrolidin-2-one]
26 | 10 | CC(=O)S[C@@H]1CC(=O)N(Cc2ccc(Oc3ccc(C)cc3)cc2)C1 [Example 127, (R)-4-Acetylthio-1-[4-(4′-methylphenoxy)benzyl]pyrrolidin-2-one]
27 | 3 | O=C1CC(S)CN1Cc1ccc(Oc2ccc(F)cc2)cc1 (stereo not drawn) [Example 31, 4-Mercapto-1-(4-(4′-fluorophenoxy)benzyl)pyrrolidin-2-one]
28 | 10 | CC(=O)SC1CC(=O)N(Cc2ccc(Oc3ccc(F)cc3)cc2)C1 (stereo not drawn) [Example 30, 4-Acetylthio-1-(4-(4′-fluorophenoxy)benzyl)pyrrolidin-2-one]
29 | 5500 | CC(=O)SC1CC(=O)N(Cc2ccc(Oc3ccccc3)cc2[N+](=O)[O-])C1 (stereo not drawn) [Example 150, 4-Acetylthio-1-(2-nitro-4-phenoxybenzyl)pyrrolidin-2-one]
30 | 9.2 | NC(=O)c1ccc(Oc2ccc(CN3CC(S)CC3=O)cc2)cc1 (stereo not drawn) [Example 135, 4-Mercapto-1-[4-(4′-aminocarbonylphenoxy)benzyl]pyrrolidin-2-one]
31 | 20 | O=C1CC(S)CN1Cc1ccc(Oc2ccc(F)c(F)c2)cc1 (stereo not drawn) [Example 122, 4-Mercapto-1-[4-(3′,4′-difluorophenoxy)benzyl]pyrrolidin-2-one]
32 | 53 | CC(=O)SC1CC(=O)N(Cc2ccc(Oc3ccc([N+](=O)[O-])cc3)cc2)C1 (stereo not drawn) [Example 142, 4-Acetylthio-1-[4-(4′-nitrophenoxy)benzyl]pyrrolidin-2-one]

Row | Molecule | IC50 [nM]
33 | 4-Acetylthio-1-[4-(2′-fluorophenoxy)benzyl]pyrrolidin-2-one [Example 112] | 20

same assay, conditions: Table 10; 37° C., 2 hours

Row | IC50 [nM] | Molecule
34 | > 10000 | O=C1CC(S)CN1Cc1ccc([S+]([O-])c2ccccc2)cc1 (stereo not drawn) [Example 172, 4-Mercapto-1-(4-phenylsulfinylbenzyl)pyrrolidin-2-one]
35 | 1000 | CC(=O)SC1CC(=O)N(Cc2ccc(OCc3ccccc3)cc2)C1 (stereo not drawn) [Example 165, 4-Acetylthio-1-(4-benzyloxybenzyl)pyrrolidin-2-one]
36 | 100 | O=C1CC(S)CN1Cc1ccc(OCc2ccccc2)cc1 (stereo not drawn) [Example 166, 4-Mercapto-1-(4-benzyloxybenzyl)pyrrolidin-2-one]
37 | 200 | CC(=O)SC1CC(=O)N(Cc2ccc(C(=O)c3ccccc3)cc2)C1 (stereo not drawn) [Example 161, 4-Acetylthio-1-(4-benzoylbenzyl)pyrrolidin-2-one]
38 | 500 | CC(=O)SC1CC(=O)N(Cc2ccc(Cc3ccccc3)cc2)C1 (stereo not drawn) [Example 159, 4-Acetylthio-1-(4-benzylbenzyl)pyrrolidin-2-one]
39 | 400 | CC(=O)SC1CC(=O)N(Cc2ccc(CCc3ccccc3)cc2)C1 (stereo not drawn) [Example 167, 4-Acetylthio-1-(4-phenethylbenzyl)pyrrolidin-2-one]

same assay, conditions: Table 11; 37° C., 2 hours

Row | IC50 [nM] | Molecule
40 | 3900 | Cc1ccc(S(=O)(=O)N(c2ccccc2)c2ccc(CN3CC(S)CC3=O)cc2)cc1 (stereo not drawn) [Example 204, 4-Mercapto-1-[4-(N-phenyl-N-p-toluenesulfonylamino)benzyl]pyrrolidin-2-one]

same assay, conditions: Table 13; 37° C., 2 hours

Row | IC50 [nM] | Molecule
41 | 20 | CC(=O)SC1CCC(=O)N(Cc2ccc(Oc3ccc(Br)cc3)cc2)C1=O (stereo not drawn) [Example 43, 3-Acetylthio-1-[4-(4-bromophenoxy)benzyl]piperidine-2,6-dione]
42 | 4000 | O=C(SC1CCCN(Cc2ccc(Oc3ccccc3)cc2)C1=O)c1ccccc1 (stereo not drawn) [Example 47, 3-Benzoylthio-1-(4-phenoxybenzyl)piperidin-2-one]
